Series [1] can be described thus: In vitro stability on incubation with mouse serum. In kind it is in vitro ADME. The conditions noted are these: mouse, serum.
Series [2] addresses dipeptidyl peptidase-IV (DPP-IV) (Homo sapiens, UniProt P27487). Description: In vitro proteolytic stability against DPP-IV. Format: in vitro ADME. The conditions noted are these: isolated enzyme dpp iv, pH 7.4.

Sequence of dipeptidyl peptidase-IV (DPP-IV) (P27487 whole entry, species assumed): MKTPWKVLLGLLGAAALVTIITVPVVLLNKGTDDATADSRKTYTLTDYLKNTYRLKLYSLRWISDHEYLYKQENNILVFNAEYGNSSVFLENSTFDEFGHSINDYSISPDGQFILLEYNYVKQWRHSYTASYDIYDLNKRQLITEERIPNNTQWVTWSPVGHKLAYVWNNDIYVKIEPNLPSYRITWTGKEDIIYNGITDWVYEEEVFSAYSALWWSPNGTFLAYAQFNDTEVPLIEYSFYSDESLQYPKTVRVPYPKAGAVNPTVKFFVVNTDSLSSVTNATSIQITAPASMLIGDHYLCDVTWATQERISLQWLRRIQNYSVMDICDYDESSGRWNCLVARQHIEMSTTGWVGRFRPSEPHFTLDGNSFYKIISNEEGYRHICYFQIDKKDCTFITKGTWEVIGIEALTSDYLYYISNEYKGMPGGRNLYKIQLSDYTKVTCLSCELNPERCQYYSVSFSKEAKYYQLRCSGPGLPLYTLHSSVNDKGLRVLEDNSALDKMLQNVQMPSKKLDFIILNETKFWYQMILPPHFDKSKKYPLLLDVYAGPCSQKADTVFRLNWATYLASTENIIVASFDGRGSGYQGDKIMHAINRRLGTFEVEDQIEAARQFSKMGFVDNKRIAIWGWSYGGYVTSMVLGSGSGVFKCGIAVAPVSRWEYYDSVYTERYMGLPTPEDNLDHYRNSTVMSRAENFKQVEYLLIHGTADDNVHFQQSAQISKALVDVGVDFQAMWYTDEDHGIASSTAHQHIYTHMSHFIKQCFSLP

As for `CC[C@H](C)[C@H](NC(=O)[C@H](Cc1ccccc1)NC(=O)[C@H](CCC(=O)O)NC(=O)[C@H](CCCCN)NC(=O)[C@H](C)NC(=O)[C@H](C)NC(=O)[C@H](CCC(N)=O)NC(=O)CNC(=O)[C@H](CCC(=O)O)NC(=O)[C@H](CC(C)C)NC(=O)[C@H](Cc1ccc(O)cc1)NC(=O)[C@H](CO)NC(=O)[C@H](CO)NC(=O)[C@@H](NC(=O)[C@H](CC(=O)N[C@@H]1O[C@H](CO)[C@@H](O)[C@H](O)[C@H]1O)NC(=O)[C@H](CO)NC(=O)[C@@H](NC(=O)[C@H](Cc1ccccc1)NC(=O)[C@@H](NC(=O)CNC(=O)[C@H](CCC(=O)O)NC(=O)[C@H](C)NC(=O)[C@@H](N)Cc1c[nH]cn1)[C@@H](C)O)[C@@H](C)O)C(C)C)C(=O)N[C@@H](C)C(=O)N[C@@H](Cc1c[nH]c2ccccc12)C(=O)N[C@@H](CC(C)C)C(=O)N[C@H](C(=O)N[C@@H](CCCCN)C(=O)NCC(=O)N[C@@H](CCCNC(=N)N)C(=O)NCC(=O)O)C(C)C` [Glc-GLP-1-1], in series [1], the half-life (in general, the time needed for the level to fall by half in the phase considered) at 200 µM came to 94.1 ± 7.6 min. Besides, the half-life in series [2] was 30.2 ± 2.4 min.
Take `CC[C@H](C)[C@H](NC(=O)[C@H](CO)NC(=O)[C@H](CCC(=O)O)NC(=O)[C@H](CC(=O)N[C@@H]1O[C@H](CO)[C@@H](O)[C@H](O)[C@H]1O)NC(=O)[C@H](C)NC(=O)[C@H](C)NC(=O)[C@H](CCC(N)=O)NC(=O)CNC(=O)[C@H](CCC(=O)O)NC(=O)[C@H](CC(C)C)NC(=O)[C@H](Cc1ccc(O)cc1)NC(=O)[C@H](CO)NC(=O)[C@H](CO)NC(=O)[C@@H](NC(=O)[C@H](CC(=O)O)NC(=O)[C@H](CO)NC(=O)[C@@H](NC(=O)[C@H](Cc1ccccc1)NC(=O)[C@@H](NC(=O)CNC(=O)[C@H](CCC(=O)O)NC(=O)[C@H](C)NC(=O)[C@@H](N)Cc1c[nH]cn1)[C@@H](C)O)[C@@H](C)O)C(C)C)C(=O)N[C@@H](C)C(=O)N[C@@H](Cc1c[nH]c2ccccc12)C(=O)N[C@@H](CC(C)C)C(=O)N[C@H](C(=O)N[C@@H](CCCCN)C(=O)NCC(=O)N[C@@H](CCCNC(=N)N)C(=O)NCC(=O)O)C(C)C` [Glc-GLP-1-3]: the half-life at 200 µM in series [1] amounted to 139 ± 14.5 min. Besides, the half-life in series [2] was 46.1 ± 3.5 min.
`CC[C@H](C)[C@H](NC(=O)[C@H](Cc1ccccc1)NC(=O)[C@H](CCC(=O)O)NC(=O)[C@H](CCCCN)NC(=O)[C@H](C)NC(=O)[C@H](C)NC(=O)[C@H](CCC(N)=O)NC(=O)CNC(=O)[C@H](CCC(=O)O)NC(=O)[C@H](CC(C)C)NC(=O)[C@H](Cc1ccc(O)cc1)NC(=O)[C@H](CO)NC(=O)[C@H](CO)NC(=O)[C@@H](NC(=O)[C@H](CC(=O)N[C@@H]1O[C@H](CO)[C@@H](O[C@@H]2O[C@H](CO)[C@@H](O[C@@H]3O[C@H](CO[C@H]4O[C@H](CO)[C@@H](O)[C@H](O)[C@@H]4O[C@@H]4O[C@H](CO)[C@@H](O[C@@H]5O[C@H](CO[C@]6(C(=O)O)C[C@H](O)[C@@H](NC(C)=O)[C@H]([C@H](O)[C@H](O)CO)O6)[C@H](O)[C@H](O)[C@H]5O)[C@H](O)[C@H]4NC(C)=O)[C@@H](O)[C@H](O[C@H]4O[C@H](CO)[C@@H](O)[C@H](O)[C@@H]4O[C@@H]4O[C@H](CO)[C@@H](O[C@@H]5O[C@H](CO[C@]6(C(=O)O)C[C@H](O)[C@@H](NC(C)=O)[C@H]([C@H](O)[C@H](O)CO)O6)[C@H](O)[C@H](O)[C@H]5O)[C@H](O)[C@H]4NC(C)=O)[C@@H]3O)[C@H](O)[C@H]2NC(C)=O)[C@H](O)[C@H]1O)NC(=O)[C@H](CO)NC(=O)[C@@H](NC(=O)[C@H](Cc1ccccc1)NC(=O)[C@@H](NC(=O)CNC(=O)[C@H](CCC(=O)O)NC(=O)[C@H](C)NC(=O)[C@@H](N)Cc1c[nH]cn1)[C@@H](C)O)[C@@H](C)O)C(C)C)C(=O)N[C@@H](C)C(=O)N[C@@H](Cc1c[nH]c2ccccc12)C(=O)N[C@@H](CC(C)C)C(=O)N[C@H](C(=O)N[C@@H](CCCCN)C(=O)NCC(=O)N[C@@H](CCCNC(=N)N)C(=O)NCC(=O)O)C(C)C` [Glycan-GLP-1-1(G2S2)] gave a half-life at 200 µM in series [1] of 737 ± 12.3 min. In series [2], the half-life stood at 146 ± 4.3 min.
In series [1], `CC[C@H](C)[C@H](NC(=O)[C@H](Cc1ccccc1)NC(=O)[C@H](CCC(=O)O)NC(=O)[C@H](CCCCN)NC(=O)[C@H](C)NC(=O)[C@H](C)NC(=O)[C@H](CCC(N)=O)NC(=O)CNC(=O)[C@H](CCC(=O)O)NC(=O)[C@H](CC(C)C)NC(=O)[C@H](Cc1ccc(O)cc1)NC(=O)[C@H](CO)NC(=O)[C@H](CO)NC(=O)[C@@H](NC(=O)[C@H](CC(=O)O)NC(=O)[C@H](CO)NC(=O)[C@@H](NC(=O)[C@H](Cc1ccccc1)NC(=O)[C@@H](NC(=O)CNC(=O)[C@H](CCC(=O)O)NC(=O)[C@H](C)NC(=O)[C@@H](N)Cc1c[nH]cn1)[C@@H](C)O)[C@@H](C)O)C(C)C)C(=O)N[C@@H](C)C(=O)N[C@@H](Cc1c[nH]c2ccccc12)C(=O)N[C@@H](CC(C)C)C(=O)N[C@H](C(=O)N[C@@H](CC(=O)N[C@@H]1O[C@H](CO)[C@@H](O[C@@H]2O[C@H](CO)[C@@H](O[C@@H]3O[C@H](CO[C@H]4O[C@H](CO)[C@@H](O)[C@H](O)[C@@H]4O[C@@H]4O[C@H](CO)[C@@H](O[C@@H]5O[C@H](CO)[C@H](O)[C@H](O)[C@H]5O)[C@H](O)[C@H]4NC(C)=O)[C@@H](O)[C@H](O[C@H]4O[C@H](CO)[C@@H](O)[C@H](O)[C@@H]4O[C@@H]4O[C@H](CO)[C@@H](O[C@@H]5O[C@H](CO)[C@H](O)[C@H](O)[C@H]5O)[C@H](O)[C@H]4NC(C)=O)[C@@H]3O)[C@H](O)[C@H]2NC(C)=O)[C@H](O)[C@H]1O)C(=O)NCC(=O)N[C@H](C(=O)NCC(=O)O)[C@@H](C)O)C(C)C` [Glycan-GLP-1-5(G2)] returned a half-life at 200 µM of 390 ± 13.5 min. In series [2], the half-life came out at 182 ± 0.1 min.
Molecule `CC[C@H](C)[C@H](NC(=O)[C@H](Cc1ccccc1)NC(=O)[C@H](CCC(=O)O)NC(=O)[C@H](CCCCN)NC(=O)[C@H](C)NC(=O)[C@H](C)NC(=O)[C@H](CCC(N)=O)NC(=O)CNC(=O)[C@H](CCC(=O)O)NC(=O)[C@H](CC(C)C)NC(=O)[C@H](Cc1ccc(O)cc1)NC(=O)[C@H](CO)NC(=O)[C@H](CO)NC(=O)[C@@H](NC(=O)[C@H](CC(=O)O)NC(=O)[C@H](CO)NC(=O)[C@@H](NC(=O)[C@H](Cc1ccccc1)NC(=O)[C@@H](NC(=O)CNC(=O)[C@H](CCC(=O)O)NC(=O)[C@H](C)NC(=O)[C@@H](N)Cc1c[nH]cn1)[C@@H](C)O)[C@@H](C)O)C(C)C)C(=O)N[C@@H](C)C(=O)N[C@@H](Cc1c[nH]c2ccccc12)C(=O)N[C@@H](CC(C)C)C(=O)N[C@H](C(=O)N[C@@H](CC(=O)N[C@@H]1O[C@H](CO)[C@@H](O)[C@H](O)[C@H]1O)C(=O)NCC(=O)N[C@H](C(=O)NCC(=O)O)[C@@H](C)O)C(C)C` [Glc-GLP-1-5] came in with a half-life at 200 µM in series [1] of 113 ± 11.8 min. The half-life in series [2] is 32.5 ± 1.4 min.

Values taken from paper PMC9639207 (RSC Advances, 2022).
